Molecular target: T1, Type-2 angiotensin II receptor (Homo sapiens, UniProt P50052)
T1 sequence (P50052 whole entry): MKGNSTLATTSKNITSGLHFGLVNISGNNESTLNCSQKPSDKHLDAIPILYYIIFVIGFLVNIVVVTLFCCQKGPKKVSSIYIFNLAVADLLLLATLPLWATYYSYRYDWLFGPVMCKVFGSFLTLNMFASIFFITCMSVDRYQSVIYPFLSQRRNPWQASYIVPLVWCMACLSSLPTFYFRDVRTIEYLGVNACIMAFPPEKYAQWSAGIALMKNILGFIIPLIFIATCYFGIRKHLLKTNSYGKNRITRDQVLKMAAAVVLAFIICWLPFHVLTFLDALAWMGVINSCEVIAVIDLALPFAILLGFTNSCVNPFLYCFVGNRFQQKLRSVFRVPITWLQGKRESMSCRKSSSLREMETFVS
Assay: Displacement of [125-I]-[Sar1, Ile8] from recombinant human AT2R transfected in human HEK293 cells incubated for 2 hrs by liquid scintillation counter analysis

**Q.** For H-DRVYIYPF-OH, which IC50 is on record?
**A.** 4 nM

Source: BindingDB's records for doi:10.1016/j.bmcl.2021.128086 (Vrije Universiteit Brussel, 2021)
